The values that follow come from patent publication US20120318750A1, “METHODS AND COMPOSITIONS FOR COMPLEX BINDING OF METAL IONS” (ChemseQ International AB, priority 2009, published 2012).

A short description of data set [1]: Flotation of manganese ions with sequestering agent in a flotation cell, metal analysis of foam. The conditions noted are these: 1 mg manganese as manganese sulphate, sequestering agent:metal 1.2:1, pH 5.5, flotation approx. 30 min. An excerpt:
In order to investigate the separability of a sequestering agent according to the invention a small flotation cell was used. This flotation cell has a volume of approximately 1.6 l, a height of 315 mm and an inner diameter of 80 mm. Compressed air used to form the foam is led through a porous sintered glass filter of diameter 60 mm with a nominal porosity of 10-16 μm (“porosity 4”) mounted at the bottom of the flotation cell. At the top of the flotation cell a cylinder of an inner diameter of 30 mm and a height of 415 mm, with an outlet placed at 72 mm from the bottom, is mounted. The outlet is used to collect the foam and thereby the chelate according to the invention. At the top of the latter cylinder an adjustable valve is mounted to be able to better control the foaming and to direct the foam to the outlet.
was prepared from 2-aminoethanol, tert-butyl bromoacetate and tert-butyl 2-aminotetradecanoate as main ingredients using conventional techniques and was therafter mixed in 500 ml deionised water with 1 mg of manganese in the form of manganese sulphate (in a molar ratio of 1.2:1=sequestering agent: manganese sulphate) and a flotation agent (N,N-dimethyldodecylamine N-oxide, in a molar ratio of 10:1=flotation agent:sequestering agent).
The pH-value of the solution was adjusted to pH 5.5 with 0.1 M sodium hydroxide solution or 0.1 M hydrogen chloride solution. […]

Data set [2] in a line: Flotation of copper ions with sequestering agent in a flotation cell, metal analysis of foam. The following applies: 1 mg copper as copper sulphate, sequestering agent:metal 1.2:1, pH 5.5, flotation approx. 30 min.
Data set [3] is described as follows: Precipitation/recovery from a copper(II) sulfate solution by electrolysis, then acidification (Experimental Example 6). The conditions noted are these: electrolysis pH 12, 50 min, 300-350 mA. The procedure:
The recovery of 2-dodecyl-3-carboxymethyl-3-azapentane diacid was performed in a two-step procedure.
In the first stage metal ions was removed from the solution by electrolysis at a specified pH and current intensity: The equipment to perform the electrolysis consisted of a Manson EP-601 rectifier and two platinum electrodes in form of a spring (anode) and a basket (cathode).
To a solution of 2-dodecyl-3-carboxymethyl-3-azapentane diacid and copper in the form of copper(II) sulfate (30 ml, in a molar ratio of 1.2:1=sequestering agent: copper(II) sulfate, [sequestrent]=10.5 mM, [Cu^2+]=655 ppm) in a beaker was sodium sulphate (corresponding to 50 mg/l) added, in order to receive wished current intensity. Solutions of 1 M aqueous sodium hydroxide was added to adjust the pH to 12. The total volume of the solution was 150 ml. The electrolysis was performed during 50 min. at a current intensity of 300-350 mA.
In the second step the electrolysis solution was acidified with 1 M aqueous hydrogen chloride to pH=2.4. The precipitated material was removed by filtration (glass filter—Schott u.Gen Mainz 1G2) and dried in a vacuum chamber at 0.8 mbar for 24 hours.
99.6 mg precipitate was obtained. Organic analyses were made with the aid of an ESI-MS (recorded on a Micromass Quattro II mass spectrometer coupled with a Harvard Apparatus Pump 11 syringe pump directly into the ESI source of the mass spectrometer at a flow rate of 6 μl/min. The data was processed using MassLynx 4.0 software) in positive and negative mode, and NMR with a Varian 500 instrument. The precipitate contained exclusively of 2-dodecyl-3-carboxymethyl-3-azapentane diacid.
Metal analyses were made with the aid of a Perkin-Elmer AA300 atomic absorption spectrometer.

Data set [4] is described as follows: Solubility of sequestering agent in a copper(II) chloride solution on stepwise acidification. Format: physicochemical. The conditions noted are these: 5.66 mM sequestrent, 300 ppm copper, room temperature. The procedure:
A stock solution of 4-dodecyl-3,6,9-tri(carboxymethyl)-3,6,9-triazaundecane diacid and copper in the form of copper(II) chloride (20 ml, in a molar ratio of 1.2:1=sequestering agent: copper(II) chloride, [Cu^2+]=900 ppm, pH=4.5) was diluted with milliQ-water to a total volume of 60 ml in a beaker, corresponding to a solution with an initial sequestrent and copper concentration of 5.66 mM and 300 ppm, respectively. To this solution 2 M aqueous hydrogen chloride was added stepwise, under magnetical stirring at room temperature, to follow the solubility behavior of 4-dodecyl-3,6,9-tri(carboxymethyl)-3,6,9-triazaundecane diacid.

Data set [5] is described as follows: Precipitation/recovery of sequestering agent from a copper(II) chloride solution by acidification to pH 1.8. The conditions noted are these: acidified to pH=1.8, 5.66 mM sequestrent, 300 ppm copper. The procedure: A stock solution of 4-dodecyl-3,6,9-tri(carboxymethyl)-3,6,9-triazaundecane diacid and copper in the form of copper(II) chloride (20 ml, in a molar ratio of 1.2:1=sequestering agent: copper(II) chloride, [Cu^2+]=900 ppm, pH=4.5) was diluted with milliQ-water to a total volume of 60 ml in a beaker, corresponding to a solution with an initial sequestrent- and copper concentration of 5.66 mM and 300 ppm, respectively. To this solution 2 M aqueous hydrogen chloride was added under magnetical stirring at room temperature to pH=1.8. A light blue precipitate was removed by filtration (P3 glass filter) leaving a colourless transparent filtrate. The light blue precipitate was dried in a vacuum chamber at 0.8 mbar for 19 hours resulting in a light blue solid.
270 mg precipitate was obtained. Organic analyses were made with the aid of an ESI-MS (recorded on a Micromass Quattro II mass spectrometer coupled with a Harvard Apparatus Pump 11 syringe pump directly into the ESI source of the mass spectrometer at a flow rate of 6 μl/min. The data was processed using MassLynx 4.0 software) in positive and negative mode.
The precipitate contained exclusively of 4-dodecyl-3,6,9-tri(carboxymethyl)-3,6,9-triazaundecane diacid and complexed sequestering agent. […] Metal analyses were made with the aid of a Perkin-Elmer AA300 atomic absorption spectrometer. […]

Data set [6] in a line: Precipitation/recovery from a copper(II) chloride solution by electrolysis with cation exchange membrane, then acidification (Experimental Example 7). The conditions noted are these: electrolysis starting pH 4.1, 60 min, 250-300 mA. The procedure: The recovery of 4-dodecyl-3,6,9-tri(carboxymethyl)-3,6,9-triazaundecane diacid was performed in a two-step procedure.
In the first stage metal ions was removed from the solution by electrolysis at a specified pH and current intensity. The equipment to perform the electrolysis consisted of a Manson EP-60.1 rectifier and two platinum electrodes in form of a spring (anode) and a basket (cathode). The electrodes were separated with a cationic exchange membrane (CMI-7000 Cation exchange membranes—Membranes International INC.)
To a solution of 4-dodecyl-3,6,9-tri(carboxymethyl)-3,6,9-triazaundecane diacid and copper in the form of copper(II) chloride (30 ml, in a molar ratio of 1.2:1=sequestering agent: copper(II) chloride, [Cu^2+]=900 ppm, pH=4.5) in a beaker was sodium sulphate (corresponding to 0.1 M), in order to receive wished current intensity. The pH of the starting solution was 4.1. The total volume of the solution was 300 ml. The electrolysis was performed during 60 min. at a current intensity of 250-300 mA.
In the second step the electrolysis solution was acidified with 1 M aqueous hydrogen chloride to pH=2.4. The precipitated material was removed by filtration (glass filter—Schott u.Gen Mainz 1G2) and dried in a vacuum chamber at 0.8 mbar for 22 hours.
198.7 mg precipitate was obtained. Organic analyses were made with the aid of an ESI-MS (recorded on a Micromass Quattro II mass spectrometer coupled with a Harvard Apparatus Pump 11 syringe pump directly into the ESI source of the mass spectrometer at a flow rate of 6 μL/min. The data was processed using MassLynx 4.0 software) in positive and negative mode, and NMR with a Varian 500 instrument. The precipitate contained exclusively of 4-dodecyl-3,6,9-tri(carboxymethyl)-3,6,9-triazaundecane diacid. Metal analyses were made with the aid of a Perkin-Elmer AA300 atomic absorption spectrometer.

With `CCCCCCCCCCCCC(C(=O)O)N(CCN(CC(=O)O)CC(=O)O)CC(=O)O` (stereo not drawn) [2-dodecyl-3,6-di(carboxymethyl)-3,6-diazaoctane diacid], the “added manganese found in the foam” value in data set [1] is on record as “About 35%”. In addition, the “added copper found in the foam” value in data set [2] is listed as roughly 65%.
Regarding `CCCCCCCCCCCCC(C(=O)O)N(CC(=O)O)CC(=O)O` (stereo not drawn) [2-dodecyl-3-carboxymethyl-3-azapentane diacid], in data set [1], the “added manganese found in the foam” value is “About 10%”. Moreover, in data set [2], the “added copper found in the foam” value is given as roughly 70%. The “copper found on the cathode” value in data set [3] was 99.4%. Also, in data set [3] (then acidified to pH=2.4), the “copper found in the filtrate” value is 0.1% and the “copper found in the precipitate” value stood at 0.5%.
With `CCCCCCCCCCCCC(CN(CCN(CC(=O)O)CC(=O)O)CC(=O)O)N(CC(=O)O)CC(=O)O` (stereo not drawn) [4-dodecyl-3,6,9-tri(carboxymethyl)-3,6,9-triazaundecane diacid], the results for the solubility observation entry in data set [4] (pH<0.5), in data set [4] (pH=2.8-0.5) and in data set [4] (pH=4.5-2.8) were “A clear blue aqueous solution”, “Precipitated material is observed” and “A clear blue aqueous solution”, respectively. Besides, the results for the “copper found in the filtrate” value in data set [5] and in data set [6] (then acidified to pH=2.4) were 1% and 0.1%, respectively. For the same compound, the “copper found in the precipitate” value in data set [5] is recorded as 99%; in data set [6] (then acidified to pH=2.4), 0.1%. Also, the “copper found on the cathode” value in data set [6] is reported as 99.8%.
